One data set deals with C8166 cells. In kind it is cell-based, human. As to the method:
(§1) Cytotoxicity was assayed by MTT colorimetric reduction as previously described, [18]. Briefly, a serial concentration of FNC was added to a 96-well plate, followed by 100 µl 4×10^4 C8166 cells (5×10^5 cells for PBMC). After incubation at 37°C, 5% CO2 for 3 days (7 days for PBMCs), 20 µl MTT was added each well. After incubation for 4 hours, 100 µl supernatant was removed and 100 µl 20%SDS-50%DMF was added. The plate was incubated at 37°C overnight. The optical absorbance was measured by ELISA reader (ELx800, Bio-Tek, VT, USA) at 570 nm and 630 nm, and 50% cytotoxicity concentration (CC50) was calculated. 3TC and AZT were used as control.

The subject of a further data set is PBMC. It counts as cell-based, human. As to the method:
C8166 cells were kindly donated by the Medical Research Council (MRC), the AIDS Reagent Project, U.K, and were maintained in RPMI-1640 with 10% FBS in humidified incubator with 5% CO2 at 37°C [16]. Peripheral blood mononuclear cells (PBMCs) were isolated from healthy donors by Ficoll-Hypaque density gradient centrifugation as described by the manufacturer’s instructions (Ethical Approval Number: SWYX-2011016). PBMCs were stimulated with 10% FBS, 5 µg/ml PHA and 50 U/ml IL-2 for three days before experiments.
as §1

Another data set relates to HIV-1KM018. Nature of the data set: Anti-HIV activity in vitro, PBMC. In kind it is cell-based. Particulars: for EC50: read-out: EC50s. As to the method: (§2) C8166 cells were infected with different HIV-1 or HIV-2 laboratory strains and resistant strains at different serial concentration compounds with multiplicity of infection (MOI) of 0.075∼0.6. PHA-stimulated PBMCs were incubated with different clinical strains in RPMI-1640 (with 10% FBS, 50 U/ml IL-2 and 2 µg/ml polybrene) at MOI of 0.1. After infection at 37°C in 5% CO2 for 2 hours, C8166 cells were washed three times to remove free viruses and re-suspended by RPMI-1640 (with 10% FBS). 100 µl 4×10^4 cells (5×10^5 cells for PBMC) were seeded each well in a 96-well plate with gradient concentration of FNC. The plate was placed in a humidified incubator at 37°C, 5% CO2. 3TC and AZT were used as control. After incubation of 3–7 days, the percentage inhibition of syncytia formation was scored or the level of p24 was measured by ELISA [19] and 50% effective concentration (EC50) were calculated.

Another data set has as its system Wild type HIV-1IIIB. Kind of data set: Anti-HIV activity / phenotypic analysis in C8166. It counts as cell-based. The conditions noted are these: for EC50: Human immunodeficiency virus 1, C8166, wild type HIV-1IIIB; for FC, fold change, the ratio of EC50(Mut)/EC50(WT): wild type HIV-1IIIB (reference).
In another data set the test system is FNCP-21 HIV-1 IIIB. Nature of the data set: Phenotypic analysis of resistant variants in C8166. It counts as cell-based. The conditions noted are these: for FC, fold change, the ratio of EC50(Mut)/EC50(WT): FNCP-21 HIV-1 IIIB vs wild type HIV-1IIIB; for EC50: Human immunodeficiency virus 1, C8166, FNC-selected HIV-1IIIB at P-21.
The subject of a further data set is 3TCP-21 HIV-1IIIB. Nature of the data set: Phenotypic analysis of resistant variants in C8166. In kind it is cell-based. The conditions noted are these: for FC, fold change, the ratio of EC50(Mut)/EC50(WT): 3TCP-21 HIV-1IIIB vs wild type HIV-1IIIB; for EC50: Human immunodeficiency virus 1, C8166, 3TC-selected HIV-1IIIB at P-21.
Another data set has as its system HIV-1RF. Kind of data set: Anti-HIV activity in vitro, C8166. In kind it is cell-based. The conditions noted are these: Human immunodeficiency virus 1, subtype B. As to the method:
as §2

Another data set deals with HIV-1_74V. Nature of the data set: Anti-HIV activity in vitro, C8166. It counts as cell-based. The conditions noted are these: Human immunodeficiency virus 1, subtype B, NRTI-resistant. The protocol:
as §2

A further data set has as its system HIV-2CBL-20. Nature of the data set: Anti-HIV activity in vitro, C8166. It counts as cell-based. The conditions noted are these: Human immunodeficiency virus 2; C8166, HIV-2CBL-20, subtype A. The protocol: as §2
A further data set has as its system HIV-2ROD. Kind of data set: Anti-HIV activity in vitro, C8166. Particulars: Human immunodeficiency virus 2, subtype A. In kind it is cell-based. As to the method:
as §2

Data set [1] relates to HIV-1L10R/M46I/L63P/V82T/I84V. Nature of the data set: microbe, parasite or virus in culture. In kind it is cell-based. The conditions noted are these: Human immunodeficiency virus 1, C8166, read-out: EC50s.
Data set [2] has as its system pNL4-3 gp41 (36G) V38A/N42T. In kind it is cell-based, HIV-1. The conditions noted are these: C8166, pNL4-3 gp41 (36G) V38A/N42T, subtype B, FI-resistant.
The test system of another data set is HIV-1TC-1. Kind of data set: Anti-HIV activity in vitro, PBMC. In kind it is cell-based. Particulars: Human immunodeficiency virus 1, HIV-1TC-1, CRF01AE, clinical strain. As to the method: as §2
In another data set the test system is HIV-1WAN T69N. Nature of the data set: microbe, parasite or virus in culture. In kind it is cell-based. Particulars: for EC50: Human immunodeficiency virus 1, PBMC, HIV-1WAN T69N, CRF01AE, clinical strain.
Data set [3] has as its system HIV-1IIIB. Kind of data set: Selection of drug-resistant HIV-1 variants and genotypic resistance assay. It counts as cell-based.
The subject of data set [4] is HIV-1. Kind of data set: Anti-HIV activity in vitro, summary over HIV-1 strains. It counts as cell-based. The conditions noted are these: Human immunodeficiency virus 1. As to the method:
as §2

The test system of another data set is HIV-2. Nature of the data set: Anti-HIV activity in vitro, summary over HIV-2 strains. It counts as cell-based. Particulars: Human immunodeficiency virus 2; range over HIV-2 strains; read-out: EC50s on HIV-2. The protocol: as §2
Data set [5] relates to HIV-1. Kind of data set: Activity assay with 50% human serum in C8166. It counts as cell-based. Particulars: C8166, 50% human serum, data not shown.
Data set [6] concerns HIV-1IIIB. Kind of data set: Quantification of HIV-1 DNA species by real-time quantitative PCR. The conditions noted are these: HIV-1IIIB infected C8166, 2 nM FNC or 2 µM 3TC.
The mark [7] stands for this setting: Human immunodeficiency virus 1, PBMC, HIV-1KM018, B/C recombinant, clinical strain.

The text below walks through data of paper PMC4140803 (PLoS ONE, 2014).

Structures are written as SMILES. Like-named read-outs stand apart in the source and are kept apart here.

Turning to `Cc1cn([C@H]2C[C@H](N=[N+]=[N-])[C@@H](CO)O2)c(=O)[nH]c1=O` [AZT, zidovudine], the CC50s is 5090 ± 260 µM with C8166 cells (human) and 845.31 ± 66.23 µM in the data set on PBMC (human). For the same compound, the EC50 in the data set on HIV-1KM018 (Human immunodeficiency virus 1, PBMC) was found to be 0.478 ± 0.0455 µM; with Wild type HIV-1IIIB, 0.00939 ± 0.00122 µM; in the data set on FNCP-21 HIV-1 IIIB, 0.0123 ± 0.00024 µM; in the data set with 3TCP-21 HIV-1IIIB, 0.0131 ± 0.00243 µM. For the same compound, the “FC, fold change, the ratio of EC50(Mut)/EC50(WT)” value is 1 in the data set with Wild type HIV-1IIIB, 1.31 with FNCP-21 HIV-1 IIIB and 1.40 with 3TCP-21 HIV-1IIIB.

As for `Nc1ccn([C@@H]2CS[C@H](CO)O2)c(=O)n1` [3TC, lamivudine, reference compound], the CC50s with C8166 cells (C8166 cells, MTT, 3 days) is 930 ± 190 µM; in the data set with PBMC (PBMC, MTT, 7 days), 825.98 ± 30.52 µM. The EC50 was 350 ± 206 nM in the data set with HIV-1RF; 0.243 ± 0.0101 µM in the data set on HIV-1_74V; 319 ± 29.8 nM in the data set with HIV-2CBL-20; 257 ± 43.6 nM with HIV-2ROD; 0.416 ± 0.0118 µM in [1]; 0.386 ± 0.0362 µM in [2]. Besides, the EC50 was 0.34 ± 0.0122 µM with HIV-1KM018 (setting [7]); 0.0517 ± 0.00308 µM in the data set on HIV-1TC-1; 0.0865 ± 0.011 µM with HIV-1WAN T69N; 0.202 ± 0.0341 µM with Wild type HIV-1IIIB; 124 µM in the data set on FNCP-21 HIV-1 IIIB; 690 µM in the data set with 3TCP-21 HIV-1IIIB. Besides, the inhibition at 1 µM in the data set with HIV-1IIIB [3] (Human immunodeficiency virus 1, C8166) is more than 99%.

Regarding `[N-]=[N+]=N[C@]1(CO)O[C@@H](n2ccc(N)nc2=O)[C@@H](F)[C@@H]1O` [FNC, 2′-deoxy-2′-β-fluoro-4′-azidocytidine], the CC50s in the data set with C8166 cells (C8166 cells, MTT, 3 days) worked out at 2380 ± 50 µM; in the data set on PBMC (PBMC, MTT, 7 days) it was 3.07 ± 0.23 µM. Moreover, the EC50 in the data set with HIV-1RF came to 0.03 ± 0.02 nM; in the data set on HIV-1_74V, 0.00011 ± 1e-05 µM; in the data set on HIV-2CBL-20, 0.025 ± 0.002 nM; in the data set on HIV-2ROD, 0.018 ± 0.006 nM; in [1] it was 0.00014 ± 1e-05 µM; in data set [2], 0.00036 ± 3e-05 µM. The EC50 was determined as 0.00692 ± 0.00059 µM in the data set on HIV-1KM018 (setting [7]); 0.00034 ± 4e-05 µM in the data set on HIV-1TC-1; 0.00045 ± 9e-05 µM in the data set on HIV-1WAN T69N; 0.00011 ± 2e-05 µM in the data set with Wild type HIV-1IIIB; 0.0808 ± 0.00814 µM in the data set with FNCP-21 HIV-1 IIIB; 0.0255 ± 0.00186 µM in the data set with 3TCP-21 HIV-1IIIB. Further, the EC50 with HIV-1 [4] (range over HIV-1 strains, read-out: EC50s on HIV-1) fell in the range of 0.03 to 6.92 nM; with HIV-1 [4] (wild-type HIV-1IIIB and HIV-1RF, read-out: 50% effective concentration values (EC50)), 0.03 to 0.11 nM; with HIV-2 it was 0.018 to 0.025 nM. In addition, the “suppressive effects fold stronger than 3TC” value with HIV-1KM018 (clinical strains in PBMC, first value of the sentence) was found to be 49 fold; in the data set with HIV-1WAN T69N (clinical strains in PBMC, second value of the sentence) it was 192 fold. Further, the “FC, fold change, the ratio of EC50(Mut)/EC50(WT)” value is 1 in the data set on Wild type HIV-1IIIB, 735 in the data set with FNCP-21 HIV-1 IIIB and 232 with 3TCP-21 HIV-1IIIB. Besides, the inhibition at 0.0005 µM in the data set with HIV-1IIIB [3] (Human immunodeficiency virus 1, HIV-1IIIB infected C8166, 500 pM FNC) was more than 99%. For the same compound, the “EC50s against HIV-1 in presence of human serum” value with HIV-1 [5] was “unaffected”. In addition, the “levels of ssDNA (strong-stop minus-strand DNA)” value in the data set on HIV-1IIIB [6] (1 h, 2 h and 4 h post-infection) is “significantly reduced”. The “late RT level (full-length double-stranded DNA)” value in the data set with HIV-1IIIB [6] (4 h, 6 h and 8 h post-infection, P<0.01) was “significantly reduced”.

One may read the inhibition as how much of the control response was suppressed. A high value points to a response far below the control.
